Reference: patent US12247063B2, “Cell surface modification by coating with peptide amphiphiles (PAs)” (Northwestern University, priority 2020, dated 2025)
Each block holds one compound with its values, some of them ahead of it. Peptide text beside a SMILES is read from it.

Tests used:
[1] = molecular target: T1, Recombinant Human VCAM-1/CD106 Fc chimera protein (Homo sapiens, UniProt P19320); test: Biolayer interferometry (BLI) binding to VCAM-1 protein; settings: all concentrations of PA investigated (0.1 mM-100 nM)
T1 construct: Fc (immunoglobulin Fc fusion partner); His tag (inferred from capture on anti-penta-His sensor); purchased R&D Systems
T1 sequence (P19320 with tags, fused parts or gaps limits assumed): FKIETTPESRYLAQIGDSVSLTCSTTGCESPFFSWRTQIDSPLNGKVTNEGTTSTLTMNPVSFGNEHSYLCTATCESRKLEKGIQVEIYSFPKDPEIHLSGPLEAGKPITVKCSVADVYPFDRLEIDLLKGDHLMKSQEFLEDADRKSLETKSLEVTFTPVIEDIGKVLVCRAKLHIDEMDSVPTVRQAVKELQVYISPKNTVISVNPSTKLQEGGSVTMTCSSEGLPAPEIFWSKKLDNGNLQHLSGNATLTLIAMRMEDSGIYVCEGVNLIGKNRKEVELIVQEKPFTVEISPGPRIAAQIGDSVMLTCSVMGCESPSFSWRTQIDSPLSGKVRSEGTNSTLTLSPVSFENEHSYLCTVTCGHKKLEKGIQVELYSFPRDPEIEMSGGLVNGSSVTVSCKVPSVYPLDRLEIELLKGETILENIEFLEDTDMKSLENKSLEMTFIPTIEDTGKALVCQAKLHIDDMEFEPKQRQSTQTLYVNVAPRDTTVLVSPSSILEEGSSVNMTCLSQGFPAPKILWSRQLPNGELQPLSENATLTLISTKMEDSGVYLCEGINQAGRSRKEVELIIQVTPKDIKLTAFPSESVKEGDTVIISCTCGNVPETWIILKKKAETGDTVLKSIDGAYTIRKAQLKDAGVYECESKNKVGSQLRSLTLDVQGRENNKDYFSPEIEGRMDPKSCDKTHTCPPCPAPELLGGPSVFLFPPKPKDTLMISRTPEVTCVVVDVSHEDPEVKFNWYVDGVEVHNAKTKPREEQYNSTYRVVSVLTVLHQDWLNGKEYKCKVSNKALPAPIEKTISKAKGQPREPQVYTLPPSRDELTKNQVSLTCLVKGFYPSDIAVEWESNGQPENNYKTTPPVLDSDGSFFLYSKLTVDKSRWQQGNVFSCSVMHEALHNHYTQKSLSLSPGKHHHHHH
Procedure: The PA solution of each PA were prepared with the concentration 1 mM after annealing and serial dilutions were made for 100, 10, 1 μM, 100, 10, 1 nM solutions using DPBS. Recombinant Human VCAM-1/CD106 Fc chimera protein (R&D Systems) was purchased and the stock solution of 100 μg/mL was prepared according to the manufacturer's instructions and stored in −80° C. until use. For measurement, the protein solution was diluted to […]. The binding responses were measured and recorded by BLItz Bio-Layer Interferometer in Keck Biophysics Facility, Chicago campus, Northwestern University. The biosensor utilized for this study was Anti-Penta-HIS Biosensors (ForteBio). The measuring protocol is as follows: 30 seconds of initial baseline measurement, 600 seconds of protein (VCAM-1) immobilization, 30 seconds of base line measurement, 300 seconds of association measurement, 300 seconds of dissociation measurement. The dissociation constant was calculated by BLItz Pro Software.

ICAM surface = ICAM surface (Homo sapiens, UniProt P05362); test: Microfluidic flow retention of coated lymphocytes on protein surface; format: cell-based
ICAM surface, sequence (P05362 28-532): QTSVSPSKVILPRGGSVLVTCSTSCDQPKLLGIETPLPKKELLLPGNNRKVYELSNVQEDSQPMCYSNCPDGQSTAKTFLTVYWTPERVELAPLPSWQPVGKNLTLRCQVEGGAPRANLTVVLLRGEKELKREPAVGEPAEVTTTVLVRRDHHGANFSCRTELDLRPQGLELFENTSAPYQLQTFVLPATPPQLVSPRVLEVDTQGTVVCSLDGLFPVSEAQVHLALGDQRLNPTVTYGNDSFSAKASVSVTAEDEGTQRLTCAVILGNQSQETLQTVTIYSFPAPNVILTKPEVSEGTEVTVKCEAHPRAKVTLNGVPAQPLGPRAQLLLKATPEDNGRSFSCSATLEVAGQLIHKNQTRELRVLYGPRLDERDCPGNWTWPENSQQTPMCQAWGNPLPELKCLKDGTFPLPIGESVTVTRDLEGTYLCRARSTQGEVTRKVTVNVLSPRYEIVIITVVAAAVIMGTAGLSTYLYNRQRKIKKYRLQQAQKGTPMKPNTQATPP
Excerpt: (§1) To further investigate the coating efficiency of the targeting PAs, murine primary splenocytes were isolated, coated with TAMRA-labeled ICAM-1 targeting PA, and visualized using confocal microscopy. […] Flow cytometry was subsequently performed to compare coating efficiency of ICAM-1 and VCAM-1 targeting PAs. […] This can be visualized through both light microscopy (top) and processed images highlighting bound cell edges (bottom).

[2] = Zeta potential measurement of PA nanofibers; format: physicochemical; settings: 0.1 mM PA in DPBS
Procedure: The PA solutions were prepared with the final concentration of 0.1 mM in DPBS. Each solution was transferred to folded capillary zeta cells (Malvern). The zeta potential was measured using zetasizer Nano ZSP (Malvern).

[3] = tested on: human regulatory T (hTreg) cells; test: PA nanofiber coating of human regulatory T cells (flow cytometry, confocal); format: cell-based
Procedure: To isolate the Treg cells, the apheresis product collected from peripheral blood was suspended in a de-clumping buffer (Miltenyi PBS/EDTA Buffer, 25% Human Serum Albumin (HSA), MgCl2, and Pulmozyme). Using CliniMACS Plus and GMP grade reagents, the CD8 and CD19 depletion and CD25+ enrichment was carried out (Miltenyi). The isolated Tregs were stimulated/expanded with Exp-Act® beads at a 4:1 (bead:cell) ratio in a TexMACS medium supplemented with 5% heat-inactivated AB serum, 1,000 IU/ml IL-2, 100 ng/ml Sirolimus (SRL: Rapamycin; Sigma Aldrich) and 1 μg/ml TGF-β (Miltenyi Biotec). The cells were then restimulated with Exp-Act® beads, at a ratio of 1:1 beads on Day 7 and 14. Further, the expanded Tregs were harvested on Day 21 and Exp-Act beads were removed on the CliniMACS Plus instrument for the nanofiber coating experiment and evaluation. Peripheral blood samples were obtained under a protocol following written informed consent approved and supervised by a Northwestern University Institutional Review Board.
(§2) The cells for PA nanofiber coating should be prepared as a dispersion in buffer (DPBS; Invitrogen). The adherent cells such as 3T3 and C2C12 cells were dissociated using Trypsin (0.25%, Invitrogen). The cells were centrifuged down and washed using buffers to be prepared in DPBS (5×10^5 cells/15 μL/tube). Non-adherent cells such as CCRF-CEM cells or human regulatory T cells were simply washed by buffers to remove serum or other proteins which potentially interact with the PA molecules to get concentrated cell dispersion.
(§3) The 15 μL of concentrated cell dispersion in DPBS was mixed with 10 μL of PA solution in 500 μL-tube at RT. Unless otherwise noted, the incubation time for backbone PAs and VCAMb PA is 5 minutes and 1 minute, respectively. After incubation the cell and PA mixture was transferred to a 15 mL-conical tube with 2 mL of DPBS and centrifuged down by 1,000 g for 10 minutes. The supernatant was aspirated leaving 300 μL of buffers with the cell pellet. For backbone PA, the washing step was repeated for 3 times. For further characterizations, the pellets were dissociated in 100 μL DPBS.
(§4) All cells were stained by Calcein AM (Life Technologies) and Hoechst 33342 (Life Technologies) according to manufacturer's instructions for imaging and the flow cytometry analysis. For confocal fluorescence imaging and imaging with z-stacks, Nikon X1 Spinning Disk Confocal microscope in Center for Advanced Microscopy/Nikon Imaging Center (CAM), Northwestern University was utilized. […]
(§5) In order to quantify the coating efficiency, mean fluorescence intensity (MFI) and the viability of the cells, LSR Fortessa and Diva software (BD Biosciences) was utilized. […] The viability was calculated by dividing the number of Calcein-AM+ (living cells) by the total number of cells.

[4] = Viability of PA-coated hTreg cells (Calcein AM, flow cytometry); format: cell-based, human; settings: human, human regulatory T (hTreg) cells
Procedure: as §3
(§6) All cells were stained by Calcein AM (Life Technologies) and Hoechst 33342 (Life Technologies) according to manufacturer's instructions for imaging and the flow cytometry analysis. For confocal fluorescence imaging and imaging with z-stacks, Nikon X1 Spinning Disk Confocal microscope in Center for Advanced Microscopy/Nikon Imaging Center (CAM), Northwestern University was utilized. For 3D reconstruction of z-stacks of confocal images, IMARIS software (Oxford Instruments) in the same center was utilized.
(§7) In order to quantify the coating efficiency, mean fluorescence intensity (MFI) and the viability of the cells, LSR Fortessa and Diva software (BD Biosciences) was utilized. The coating efficiency was obtained from calculating the number of TAMRA+ cells divided by the total number of cells (Hoechst+ cells). The MFI value was obtained from living cells. The viability was calculated by dividing the number of Calcein-AM+ (living cells) by the total number of cells.

[5] = tested on: primary murine splenocytes; test: Coating of murine primary splenocytes (confocal, flow cytometry); format: cell-based
Excerpt: as §1

[6] = tested on: human regulatory T (hTreg) cells; test: Viability of PA-coated hTreg cells (Calcein AM, flow cytometry); format: cell-based; settings: 500 μM coating solution
Procedure: as §3, §6, §7

CCRF-CEM cells = test: PA nanofiber coating of CCRF-CEM model cells (confocal microscopy, flow cytometry); format: cell-based; settings: annealed nanofibers with 1 mol % TAMRA-PA
Procedure: as §2
The 15 μL of concentrated cell dispersion in DPBS was mixed with 10 μL of PA solution in 500 μL-tube at RT. […]
as §4, §5

VCAM-1 = molecular target: T2, VCAM-1 (Homo sapiens, UniProt P19320); settings: free peptide, SPR, measured from another group; cited from earlier work
T2 sequence (P19320 25-739): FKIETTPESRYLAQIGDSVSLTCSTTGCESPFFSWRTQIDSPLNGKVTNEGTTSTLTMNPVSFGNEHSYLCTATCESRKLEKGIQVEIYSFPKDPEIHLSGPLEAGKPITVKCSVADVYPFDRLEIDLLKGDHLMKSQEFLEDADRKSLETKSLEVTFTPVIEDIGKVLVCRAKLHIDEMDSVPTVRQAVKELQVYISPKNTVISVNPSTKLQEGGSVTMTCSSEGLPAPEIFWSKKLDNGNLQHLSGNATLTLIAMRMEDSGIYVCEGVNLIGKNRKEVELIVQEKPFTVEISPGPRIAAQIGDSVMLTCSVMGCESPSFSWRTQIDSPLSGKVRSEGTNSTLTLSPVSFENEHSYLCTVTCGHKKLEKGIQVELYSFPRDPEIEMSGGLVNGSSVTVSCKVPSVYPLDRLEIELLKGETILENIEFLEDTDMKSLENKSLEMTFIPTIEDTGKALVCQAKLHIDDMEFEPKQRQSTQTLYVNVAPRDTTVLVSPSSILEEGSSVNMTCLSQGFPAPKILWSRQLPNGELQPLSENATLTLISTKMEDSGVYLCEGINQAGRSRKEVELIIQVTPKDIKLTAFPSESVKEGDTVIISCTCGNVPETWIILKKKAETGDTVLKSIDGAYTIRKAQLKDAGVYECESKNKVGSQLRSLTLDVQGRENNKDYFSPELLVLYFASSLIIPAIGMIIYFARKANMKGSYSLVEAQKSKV

association with VCAM-1 protein in BLI [1]: clear association
non-specific interactions of coated lymphocytes with off-target protein (ICAM surface): minimal
zeta potential [2]: 21.4±3.703 mV
Compound: CCCCCCCCCCCCCCCC(=O)N[C@H](C(=O)N[C@H](C(=O)N[C@H](C(=O)N[C@@H](C)C(=O)N[C@@H](C)C(=O)N[C@@H](C)C(=O)N[C@@H](CCC(=O)O)C(=O)N[C@@H](CCC(=O)O)C(=O)N[C@@H](CCC(=O)O)C(=O)NCC(=O)N[C@@H](CO)C(=O)NCC(=O)N[C@H](C(=O)N[C@@H](Cc1c[nH]cn1)C(=O)N1CCC[C@H]1C(=O)N[C@@H](CCCCN)C(=O)N[C@@H](CCC(N)=O)C(=O)N[C@@H](Cc1c[nH]cn1)C(N)=O)C(C)C)C(C)C)C(C)C)C(C)C [VCAMb PA, C16-V3A3E3GSGVHPKQH (SEQ ID NO: 14)] (HELM PEPTIDE1{[CCCCCCCCCCCCCCCC(=O)[*:2]].V.V.V.A.A.A.E.E.E.G.S.G.V.H.P.K.Q.H.[am]}$$$$V2.0)
coating efficiency ([3]; PA in the range of 125-500 μM): ≥ 95%
coating efficiency ([3]; coated within 1 minute at room temperature): ≥ 94.5%
minimal concentration of stable coating ([3]; from coating efficiency and peak shifting): 125 µM
viability at 1 min, 125 µM ([4]; 125 μM PA): 85.2 ± 5.3%
viability at 1 min, 250 µM ([4]; 250 μM PA): 82.6 ± 7.45%
viability at 1 min, 500 µM ([4]; 500 μM PA): 82.53 ± 0.61%
difference in coating efficiency between VCAM-1 and ICAM-1 targeting PA [5]: little difference

Compound: CCCCCCCCCCCCCCCC(=O)N[C@H](C(=O)N[C@H](C(=O)N[C@H](C(=O)N[C@@H](C)C(=O)N[C@@H](C)C(=O)N[C@@H](C)C(=O)N[C@@H](CCC(=O)O)C(=O)N[C@@H](CCC(=O)O)C(=O)N[C@@H](CCC(=O)O)C(N)=O)C(C)C)C(C)C)C(C)C [backbone PA, C16-V3A3E3 (SEQ ID NO: 5)] (HELM PEPTIDE1{[CCCCCCCCCCCCCCCC(=O)[*:2]].V.V.V.A.A.A.E.E.E.[am]}$$$$V2.0)
viability of coated cells [6]: high viability

association with VCAM-1 protein in BLI [1]: negligible binding
Compound: C16-V3A3E3GSGQHPHVK (SEQ ID NO: 17) (VVVAAAEEEGSGQHPHVK; HELM PEPTIDE1{[CCCCCCCCCCCCCCCC(=O)[*:2]].V.V.V.A.A.A.E.E.E.G.S.G.Q.H.P.H.V.K.[am]}$$$$V2.0; SMILES CCCCCCCCCCCCCCCC(=O)N[C@H](C(=O)N[C@H](C(=O)N[C@H](C(=O)N[C@@H](C)C(=O)N[C@@H](C)C(=O)N[C@@H](C)C(=O)N[C@@H](CCC(=O)O)C(=O)N[C@@H](CCC(=O)O)C(=O)N[C@@H](CCC(=O)O)C(=O)NCC(=O)N[C@@H](CO)C(=O)NCC(=O)N[C@@H](CCC(N)=O)C(=O)N[C@@H](Cc1c[nH]cn1)C(=O)N1CCC[C@H]1C(=O)N[C@@H](Cc1c[nH]cn1)C(=O)N[C@H](C(=O)N[C@@H](CCCCN)C(N)=O)C(C)C)C(C)C)C(C)C)C(C)C) [VCAMb-scr PA]
zeta potential [2]: 6.313±0.8632 mV
coating behavior on hTreg cells ([3]; physiological buffer): the majority of the cells were not coated by the fibers

Compound: C16-V4A2E3 (SEQ ID NO: 12) (VVVVAAEEE; HELM PEPTIDE1{[CCCCCCCCCCCCCCCC(=O)[*:2]].V.V.V.V.A.A.E.E.E.[am]}$$$$V2.0; SMILES CCCCCCCCCCCCCCCC(=O)N[C@H](C(=O)N[C@H](C(=O)N[C@H](C(=O)N[C@H](C(=O)N[C@@H](C)C(=O)N[C@@H](C)C(=O)N[C@@H](CCC(=O)O)C(=O)N[C@@H](CCC(=O)O)C(=O)N[C@@H](CCC(=O)O)C(N)=O)C(C)C)C(C)C)C(C)C)C(C)C) [backbone PA candidate with V4A2 β-sheet region]
coverage of the cell surface by nanofibers (CCRF-CEM cells): only could partially cover the cell surface

Compound: VHPKQHR [VHPKQHR (SEQ ID NO: 11)]
Kd (VCAM-1): 39.6 ± 1.78 nM
